Test results from patent publication US20240252454A1, “COMPOSITION COMPRISING AN INHIBITOR OF MITOCHONDRIAL TRANSCRIPTION” (LEAD DISCOVERY CENTER GMBH, priority 2021, published 2024).

Experiments:
Assay in all cases: SRB assay, IMT combined with inhibitor
Assay type in all cases: cell-based
A375 = A375 (skin); concentration series of the labelled inhibitor + fixed concentration of IMT (3S)-1-[(2R)-2-[4-(2-chloro-4-fluoro-phenyl)-2-oxo-chromen-7-yl]oxypropanoyl]piperidine-3-carboxylic acid (Table 3: 40 nM, 120 h); negative=synergistic, positive=antagonistic
Method: (§1) Solforhodamine B assay is carried out as described in Voigt W. (2005) Sulforhodamine B Assay and Chemosensitivity. (Methods in Molecular Medicine™, vol 110. Humana Press. https://doi.org/10.1385/1-59259-869-2:039).
(§2) The determination of changes in cellular biomass was based on the Solforhodamine B assay format, carried out as described in Voigt W. (2005) Sulforhodamine B Assay and Chemosensitivity. (Methods in Molecular Medicine™, vol 110. Humana Press. https://doi.org/10.1385/1-59259-869-2:039).
(§3) All in vitro cell culture experiments were carried out under near physiological glucose concentrations (5 mM) in at least two independent replicates.
(§4) First, 30 different cell lines from 14 different tissue types were tested in the SRB assay format. The cells were examined individually for changes in growth over a period of 120 hours with dilution series of both inhibitors. Untreated cells were used as a negative control group. Subsequently, a dilution series of the respective MAPK signalling pathway SOCs was treated in combination with a fixed concentration of 40 nM (3S)-1-[(2R)-2-[4-(2-chloro-4-fluoro-phenyl)-2-oxo-chromen-7-yl]oxypropanoyl]piperidine-3-carboxylic acid.

A549 = A549 (lung); concentration series of the labelled inhibitor + fixed concentration of IMT (3S)-1-[(2R)-2-[4-(2-chloro-4-fluoro-phenyl)-2-oxo-chromen-7-yl]oxypropanoyl]piperidine-3-carboxylic acid (Table 3: 40 nM, 120 h); negative=synergistic, positive=antagonistic
Method: as §1, §2, §3, §4

BXPC3 = BXPC3 (pancreas); concentration series of the labelled inhibitor + fixed concentration of IMT (3S)-1-[(2R)-2-[4-(2-chloro-4-fluoro-phenyl)-2-oxo-chromen-7-yl]oxypropanoyl]piperidine-3-carboxylic acid (Table 3: 40 nM, 120 h); negative=synergistic, positive=antagonistic
Method: as §1, §2, §3, §4

DU145 = DU145 (prostate); concentration series of the labelled inhibitor + fixed concentration of IMT (3S)-1-[(2R)-2-[4-(2-chloro-4-fluoro-phenyl)-2-oxo-chromen-7-yl]oxypropanoyl]piperidine-3-carboxylic acid (Table 3: 40 nM, 120 h); negative=synergistic, positive=antagonistic
Method: as §1, §2, §3, §4

HCT116 = HCT116 (colon); concentration series of the labelled inhibitor + fixed concentration of IMT (3S)-1-[(2R)-2-[4-(2-chloro-4-fluoro-phenyl)-2-oxo-chromen-7-yl]oxypropanoyl]piperidine-3-carboxylic acid (Table 3: 40 nM, 120 h); negative=synergistic, positive=antagonistic
Method: as §1, §2, §3, §4

HELA = HELA (cervix); concentration series of the labelled inhibitor + fixed concentration of IMT (3S)-1-[(2R)-2-[4-(2-chloro-4-fluoro-phenyl)-2-oxo-chromen-7-yl]oxypropanoyl]piperidine-3-carboxylic acid (Table 3: 40 nM, 120 h); negative=synergistic, positive=antagonistic
Method: as §1, §2, §3, §4

KASUMI-1 = KASUMI-1 (hematological); concentration series of the labelled inhibitor + fixed concentration of IMT (3S)-1-[(2R)-2-[4-(2-chloro-4-fluoro-phenyl)-2-oxo-chromen-7-yl]oxypropanoyl]piperidine-3-carboxylic acid (Table 3: 40 nM, 120 h); negative=synergistic, positive=antagonistic
Method: as §1, §2, §3, §4

LOVO = LOVO (colon); concentration series of the labelled inhibitor + fixed concentration of IMT (3S)-1-[(2R)-2-[4-(2-chloro-4-fluoro-phenyl)-2-oxo-chromen-7-yl]oxypropanoyl]piperidine-3-carboxylic acid (Table 3: 40 nM, 120 h); negative=synergistic, positive=antagonistic
Method: as §1, §2, §3, §4

MV4-11 = MV4-11 (hematological); concentration series of the labelled inhibitor + fixed concentration of IMT (3S)-1-[(2R)-2-[4-(2-chloro-4-fluoro-phenyl)-2-oxo-chromen-7-yl]oxypropanoyl]piperidine-3-carboxylic acid (Table 3: 40 nM, 120 h); negative=synergistic, positive=antagonistic
Method: as §1, §2, §3, §4

PANC1 = PANC1 (pancreas); concentration series of the labelled inhibitor + fixed concentration of IMT (3S)-1-[(2R)-2-[4-(2-chloro-4-fluoro-phenyl)-2-oxo-chromen-7-yl]oxypropanoyl]piperidine-3-carboxylic acid (Table 3: 40 nM, 120 h); negative=synergistic, positive=antagonistic
Method: as §1, §2, §3, §4

SW620 = SW620 (colon); concentration series of the labelled inhibitor + fixed concentration of IMT (3S)-1-[(2R)-2-[4-(2-chloro-4-fluoro-phenyl)-2-oxo-chromen-7-yl]oxypropanoyl]piperidine-3-carboxylic acid (Table 3: 40 nM, 120 h); negative=synergistic, positive=antagonistic
Method: as §1, §2, §3, §4

U2OS = U2OS (bone); concentration series of the labelled inhibitor + fixed concentration of IMT (3S)-1-[(2R)-2-[4-(2-chloro-4-fluoro-phenyl)-2-oxo-chromen-7-yl]oxypropanoyl]piperidine-3-carboxylic acid (Table 3: 40 nM, 120 h); negative=synergistic, positive=antagonistic
Method: as §1, §2, §3, §4

U87MG = U87MG (brain); concentration series of the labelled inhibitor + fixed concentration of IMT (3S)-1-[(2R)-2-[4-(2-chloro-4-fluoro-phenyl)-2-oxo-chromen-7-yl]oxypropanoyl]piperidine-3-carboxylic acid (Table 3: 40 nM, 120 h); negative=synergistic, positive=antagonistic
Method: as §1, §2, §3, §4

A2780 = A2780 (ovary); concentration series of the labelled inhibitor + fixed concentration of IMT (3S)-1-[(2R)-2-[4-(2-chloro-4-fluoro-phenyl)-2-oxo-chromen-7-yl]oxypropanoyl]piperidine-3-carboxylic acid (Table 3: 40 nM, 120 h); negative=synergistic, positive=antagonistic

SMILES | difference between the calculated combinatorial index (BLISS) and the observed combinatorial effect (A375) | difference between the calculated combinatorial index (BLISS) and the observed combinatorial effect (A549) | difference between the calculated combinatorial index (BLISS) and the observed combinatorial effect (BXPC3) | difference between the calculated combinatorial index (BLISS) and the observed combinatorial effect (DU145) | difference between the calculated combinatorial index (BLISS) and the observed combinatorial effect (HCT116) | difference between the calculated combinatorial index (BLISS) and the observed combinatorial effect (HELA) | difference between the calculated combinatorial index (BLISS) and the observed combinatorial effect (KASUMI-1) | difference between the calculated combinatorial index (BLISS) and the observed combinatorial effect (LOVO) | difference between the calculated combinatorial index (BLISS) and the observed combinatorial effect (MV4-11) | difference between the calculated combinatorial index (BLISS) and the observed combinatorial effect (PANC1) | difference between the calculated combinatorial index (BLISS) and the observed combinatorial effect (SW620) | difference between the calculated combinatorial index (BLISS) and the observed combinatorial effect (U2OS) | difference between the calculated combinatorial index (BLISS) and the observed combinatorial effect (U87MG) | difference between the calculated combinatorial index (BLISS) and the observed combinatorial effect (A2780)
CC(=O)Nc1cccc(-n2c(=O)n(C3CC3)c(=O)c3c(Nc4ccc(I)cc4F)n(C)c(=O)c(C)c32)c1 [Trametinib] | 0.0510 | −0.0142 | 0.0889 | 0.0287 | −0.0027 | −0.0064 | −0.0377 | −0.0287 | 0.0747 | 0.0596 | 0.0028 | −0.0358 | 0.0578 | 0.0305
CC(C)Nc1cc(-c2c[nH]c(C(=O)N[C@H](CO)c3cccc(Cl)c3)c2)c(Cl)cn1 [Ulixertinib] | 0.0427 | −0.0185 | 0.0946 | 0.0554 | −0.0066 | −0.0117 | 0.0068 | 0.0039 | 0.0079 | 0.0634 | 0.0256 | −0.0165 | 0.0859 | −0.0025
